According to patent US12448373B2, “Azetidinyl-acetamides as CXCR7 inhibitors” (CHEMOCENTRYX, INC., priority 2021, dated 2025):

Target: T1, CXCR7 (Homo sapiens, UniProt P25106)
T1 construct: expressed in transfected cells; host or cells: CHO cells (CHO-CXCR7), transgenes maintained with Hygromycin B and G418
Assay: CXCR7 β-arrestin recruitment assay in CHO-CXCR7 cells (ProLink/EA β-galactosidase complementation), induced by human SDF-1a
Type: cell-based
Settings: assay buffer, SDF-1a at EC50 concentration
How it was run: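 CHO cells co-expressing ProLink-tagged CXCR7 and β-arrestin-EA were pre-plated overnight, then given compound and human SDF-1α at its same-day EC50. After 1.5 h at 37 °C, complemented β-galactosidase was read from 0.4 mM 3-carboxyumbelliferyl β-D-galactopyranoside (30 min, 37 °C; ex 360/em 465 nm). IC50 by 3-parameter fit.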

T1 sequence (P25106 whole entry): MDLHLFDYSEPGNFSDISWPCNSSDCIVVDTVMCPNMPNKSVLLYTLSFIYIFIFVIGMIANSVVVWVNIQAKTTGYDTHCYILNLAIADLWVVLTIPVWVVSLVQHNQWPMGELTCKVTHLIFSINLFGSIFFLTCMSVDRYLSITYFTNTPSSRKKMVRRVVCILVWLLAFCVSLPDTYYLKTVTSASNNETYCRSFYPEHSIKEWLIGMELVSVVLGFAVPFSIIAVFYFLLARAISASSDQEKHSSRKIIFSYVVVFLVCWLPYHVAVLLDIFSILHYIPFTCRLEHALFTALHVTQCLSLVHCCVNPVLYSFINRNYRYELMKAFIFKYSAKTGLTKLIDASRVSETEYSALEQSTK

Compound | IC50 [nM]
C[C@]1(O)CC[C@@H](N2CC(CC(=O)NCc3cccc(Cl)c3)(NC(=O)c3cc(-c4ccc(F)cc4F)on3)C2)CC1 [Example 1.109] | 100 to 1000
CC(C)(NC(=O)CC1(NC(=O)c2cc(-c3ccc(F)cc3F)on2)CN(C2CCC3(CCC3)CC2)C1)c1ccccn1 [Example 1.296] | 100 to 1000
CC(C)(NC(=O)CC1(NC(=O)c2cn(-c3ccc(F)cc3F)cn2)CN(C2CCCCC2)C1)c1cccc(Cl)c1 [Example 1.023] | 1000 to 20000
Cc1cc(C(F)(F)F)cc(C(C)(C)NC(=O)CC2(NC(=O)c3cc(-c4ccc(F)cc4F)on3)CN([C@H]3CC[C@](C)(O)CC3)C2)n1 [Example 1.343] | 5 to 100
Cc1cccc(C(C)(C)NC(=O)CC2(NC(=O)c3cc(-c4ccc(F)cc4F)on3)CN(CC3(C)COC3)C2)n1 [Example 1.217] | 5 to 100
CC(C)(NC(=O)CC1(NC(=O)c2cc(-c3ccc(F)cc3)on2)CN([C@H]2CC[C@](C)(O)CC2)C1)c1ccccc1 [Example 1.091] | 5 to 100
Cc1cc(C(C)(C)NC(=O)CC2(NC(=O)c3cc(-c4ccc(F)cc4F)on3)CN(C3CCC4(CC3)COC4)C2)ccn1 [Example 1.159] | 5 to 100
Cc1cc(C)nc(C(C)(C)NC(=O)CC2(NC(=O)c3nnc(-c4ccc(F)cc4F)o3)CN([C@H]3CC[C@@](C)(O)CC3)C2)n1 [Example 1.057] | 100 to 1000
C[C@]1(O)CC[C@H](N2CC(CC(=O)NC3(c4cccc(Cl)c4)COC3)(NC(=O)c3cc(-c4ccc(F)cc4F)on3)C2)CC1 [Example 1.103] | 5 to 100
CC(C)(NC(=O)CC1(NC(=O)c2cc(-c3ccc(F)cc3F)on2)CN([C@H]2CC[C@](C)(O)CC2)C1)c1ccnc(C(F)(F)F)c1 [Example 1.166] | 5 to 100
CC(C)(NC(=O)CC1(NC(=O)c2ccn(-c3ccc(F)cc3F)n2)CN([C@H]2CC[C@](C)(O)CC2)C1)c1cccc(Cl)c1 [Example 1.056] | 1000 to 20000
CC(C)(NC(=O)CC1(NC(=O)c2cc(-c3ccc(F)cc3F)on2)CN(CC2CCC2)C1)c1ccccn1 [Example 1.020] | 5 to 100
CC(C)(NC(=O)CC1(NC(=O)c2cc(-c3ccc(F)cc3F)on2)CN([C@H]2CC[C@@](C)(O)CC2)C1)c1ccc(F)cc1Cl [Example 1.252] | 5 to 100
COc1ccc(C(C)(C)NC(=O)CC2(NC(=O)c3cc(-c4ccc(F)cc4F)on3)CN([C@H]3CC[C@@](C)(O)CC3)C2)c(F)c1 [Example 1.212] | 5 to 100
C[C@]1(O)CC[C@@H](N2CC(CC(=O)NCc3ccccn3)(NC(=O)c3cc(-c4ccc(F)cc4F)on3)C2)CC1 [Example 1.098] | 1000 to 20000

Results, then the compound that gave them:

IC50 [nM] | Compound
< 5 | CC(C)(NC(=O)CC1(NC(=O)c2cc(-c3ccc(F)cc3F)on2)CN(C2CCCCC2)C1)c1ccccn1 [Example 1.326]
5 to 100 | Cc1cc(C#N)cc(C(C)(C)NC(=O)CC2(NC(=O)c3nnc(-c4ccc(F)cc4F)s3)CN([C@H]3CC[C@](C)(O)CC3)C2)n1 [Example 1.352]
5 to 100 | Cc1cc(C)nc(C(C)(C)NC(=O)CC2(NC(=O)c3nnc(-c4ccc(F)cc4F)s3)CN([C@H]3CC[C@@](C)(O)CC3)C2)n1 [Example 1.060]
< 5 | COc1ccc(F)cc1C(C)(C)NC(=O)CC1(NC(=O)c2cc(-c3ccc(F)cc3F)on2)CN([C@H]2CC[C@](C)(O)CC2)C1 [Example 1.266]
5 to 100 | COc1cccc(C(C)(C)NC(=O)CC2(NC(=O)c3cc(-c4ccc(F)cc4F)on3)CN(C3CCC4(CC3)COC4)C2)c1 [Example 1.183]
< 5 | COc1cccc(C(C)(C)NC(=O)CC2(NC(=O)c3cc(-c4ccc(F)cc4F)on3)CN([C@H]3CC[C@](C)(O)CC3)C2)n1 [Example 1.204]
< 5 | Cc1cc(Cl)cc(C(C)(C)NC(=O)CC2(NC(=O)c3cc(-c4ccc(F)cc4F)on3)CN([C@H]3CC[C@](C)(O)CC3)C2)c1 [Example 1.090]
< 5 | COc1cc(C(C)(C)NC(=O)CC2(NC(=O)c3cc(-c4ccc(F)cc4F)on3)CN([C@H]3CC[C@](C)(O)CC3)C2)ccn1 [Example 1.189]
< 5 | COc1cc(Cl)cc(C(C)(C)NC(=O)CC2(NC(=O)c3cc(-c4ccc(F)cc4F)on3)CN(CC(C)(C)O)C2)c1 [Example 1.154]
< 5 | CC(C)(NC(=O)CC1(NC(=O)c2cc(-c3ccc(F)cc3F)on2)CN([C@H]2CC[C@@](C)(O)CC2)C1)c1ccccc1Cl [Example 1.218]
< 5 | CC(C)(NC(=O)CC1(NC(=O)c2cc(-c3ccc(F)cc3F)on2)CN([C@H]2CC[C@](C)(O)CC2)C1)c1ccccc1Cl [Example 1.219]
< 5 | CC(C)(NC(=O)CC1(NC(=O)c2cc(-c3ccc(F)cc3F)on2)CN([C@H]2CC[C@](C)(O)CC2)C1)c1cccc(C#N)c1 [Example 1.173]
< 5 | CC(C)(NC(=O)CC1(NC(=O)c2nnc(-c3ccc(F)cc3F)s2)CN(C2CCCCC2)C1)c1ccccn1 [Example 1.072]
< 5 | CC(C)(NC(=O)CC1(NC(=O)c2cc(-c3ccc(F)cc3F)on2)CN([C@H]2CC[C@@](C)(O)CC2)C1)c1cc(F)cc(Cl)c1 [Example 1.123]
